The source of these data is patent US12528802B2, “Heterocyclic compound” (Takeda Pharmaceutical Company Limited, priority 2019, dated 2026).

This experiment concerns the target T1, glucosylceramide synthase (Homo sapiens, UniProt Q16739).
T1 construct: made in house; host or cells: Expi293F cells (transient expression, pcDNA3.3-TOPO vector); microsome fraction used as enzyme source
T1 sequence (Q16739 1-394): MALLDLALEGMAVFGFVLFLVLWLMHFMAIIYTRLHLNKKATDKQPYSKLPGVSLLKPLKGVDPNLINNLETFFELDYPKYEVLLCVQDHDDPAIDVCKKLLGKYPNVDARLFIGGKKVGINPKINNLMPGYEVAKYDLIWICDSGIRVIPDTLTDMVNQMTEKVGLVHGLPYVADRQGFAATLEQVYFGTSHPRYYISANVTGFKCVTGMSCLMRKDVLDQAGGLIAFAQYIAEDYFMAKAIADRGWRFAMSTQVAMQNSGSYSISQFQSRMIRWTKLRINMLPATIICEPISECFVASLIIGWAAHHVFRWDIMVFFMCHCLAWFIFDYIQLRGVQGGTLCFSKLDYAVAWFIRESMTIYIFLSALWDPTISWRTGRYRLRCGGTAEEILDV
Description: Glucosylceramide synthase (GCS) enzyme assay, microsome fraction, C8 glucosylceramide quantified by Rapidfire MS/MS. The experiment is classed as biochemical. The conditions noted are these: test compound 10 μM, 1.7 μM UDP-glucose, 3 μM C8 ceramide, room temperature 60 min; for inhibition at 10 µM: read-out: GCS enzyme inhibitory rate at 10 μM (%) (% of control). In a few lines: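 Test compound, 10 μM final, was run against human GCS from transfected Expi293F microsome fractions, using substrate solution of 6 μM C8 ceramide (in DOPC liposomes) plus 3.4 μM UDP-glucose, pH 7.5 Tris buffer, 60 min, room temperature. Product C8 glucosylceramide measured by Rapidfire MS/MS against an internal standard, % inhibition referenced to no-enzyme and DMSO wells.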

For `CC(C)(CO)c1ccc(N2Cc3c(ccnc3-c3ccc(F)cc3OCC(F)(F)F)C2=O)cc1` [Example 253, 4-[4-fluoro-2-(2,2,2-trifluoroethoxy)phenyl]-2-[4-(1-hydroxy-2-methylpropan-2-yl)phenyl]-2,3-dihydro-1H-pyrrolo[3,4-c]pyridin-1-one], the inhibition at 10 µM is 98%.

For `COc1cnccc1-c1nccc2c1CN(c1ccc(F)cc1)C2` [Example 170, 2-(4-fluorophenyl)-4-(3-methoxypyridin-4-yl)-2,3-dihydro-1H-pyrrolo[3,4-c]pyridine], the inhibition at 10 µM came to 88%.

Regarding `CS(=O)(=O)c1ccc(N2Cc3cnn(-c4ccccc4OCC(F)(F)F)c3C2)nc1` [Example 215, 5-[5-(methanesulfonyl)pyridin-2-yl]-1-[2-(2,2,2-trifluoroethoxy)phenyl]-1,4,5,6-tetrahydropyrrolo[3,4-c]pyrazole], the inhibition at 10 µM was 93%.

As to `O=C1c2ccnc(-c3ccc(F)cc3OCC(F)(F)F)c2CN1c1ccc(N2CCOCC2)nc1` [Example 177, 4-[4-fluoro-2-(2,2,2-trifluoroethoxy)phenyl]-2-[6-(morpholin-4-yl)pyridin-3-yl]-2,3-dihydro-1H-pyrrolo[3,4-c]pyridin-1-one], the inhibition at 10 µM worked out at 98%.

Turning to `O=C1c2ccnc(-c3ccc(F)cc3OCC(F)(F)F)c2CN1c1cnc(OC(F)F)nc1` [Example 151, 2-[2-(difluoromethoxy)pyrimidin-5-yl]-4-[4-fluoro-2-(2,2,2-trifluoroethoxy)phenyl]-2,3-dihydro-1H-pyrrolo[3,4-c]pyridin-1-one], the inhibition at 10 µM turned out to be 94%.

`N#CCc1ccc(N2Cc3c(ccnc3-c3ccc(F)cc3OCC(F)(F)F)C2=O)cc1` [Example 237, (4-{4-[4-fluoro-2-(2,2,2-trifluoroethoxy)phenyl]-1-oxo-1,3-dihydro-2H-pyrrolo[3,4-c]pyridin-2-yl}phenyl)acetonitrile]: the inhibition at 10 µM came to 91%.

In the case of `O=C1c2ccnc(-c3ccc(F)cc3OCC(F)F)c2CN1c1ccc(C2(O)CCC2)cc1` [Example 267, 4-[2-(2,2-difluoroethoxy)-4-fluorophenyl]-2-[4-(1-hydroxycyclobutyl)phenyl]-2,3-dihydro-1H-pyrrolo[3,4-c]pyridin-1-one], the inhibition at 10 µM was found to be 99%.

As for `CC(C)(C#N)c1ccc(N2Cc3c(ccnc3-c3ccc(F)cc3OCC(F)F)C2=O)cc1` [Example 303, 2-(4-{4-[2-(2,2-difluoroethoxy)-4-fluorophenyl]-1-oxo-1,3-dihydro-2H-pyrrolo[3,4-c]pyridin-2-yl}phenyl)-2-methylpropanenitrile], the inhibition at 10 µM was determined as 100%.

Consider `N#Cc1ccc(N2Cc3c(ccnc3-c3ccc(F)cc3OC(F)F)C2=O)nc1` [Example 70, 6-{4-[2-(difluoromethoxy)-4-fluorophenyl]-1-oxo-1,3-dihydro-2H-pyrrolo[3,4-c]pyridin-2-yl}pyridine-3-carbonitrile], for which the inhibition at 10 µM was determined as 53%.

Regarding `CC(C)(O)C(F)(F)c1ccc(N2Cc3c(ccnc3-c3ccccc3OCC(F)F)C2=O)cc1` [Example 339, 4-[2-(2,2-difluoroethoxy)phenyl]-2-[4-(1,1-difluoro-2-hydroxy-2-methylpropyl)phenyl]-2,3-dihydro-1H-pyrrolo[3,4-c]pyridin-1-one], the inhibition at 10 µM is 99%.

On to `COC(=O)c1ccc(N2CC3=C(OCCN=C3c3ccccc3OCC(F)(F)F)C2=O)cc1` [Example 335, methyl 4-{8-oxo-5-[2-(2,2,2-trifluoroethoxy)phenyl]-2,3,6,8-tetrahydro-7H-pyrrolo[3,4-f] [1,4]oxazepin-7-yl}benzoate], for which the inhibition at 10 µM was found to be 95%.

In the case of `CC(C)(O)COc1ccc(N2Cc3c(cn(C4CC4)c(=O)c3-c3ccccc3OCC(F)(F)F)C2=O)cc1` [Example 372, 5-cyclopropyl-2-[4-(2-hydroxy-2-methylpropoxy)phenyl]-7-[2-(2,2,2-trifluoroethoxy)phenyl]-1H-pyrrolo[3,4-c]pyridine-3,6(2H,5H)-dione], the inhibition at 10 µM stood at 100%.

On to `N#CC1(c2ccc(N3Cc4c(ccnc4-c4ccc(F)cc4OCC(F)(F)F)C3=O)cc2)CC1` [Example 244, 1-(4-{4-[4-fluoro-2-(2,2,2-trifluoroethoxy)phenyl]-1-oxo-1,3-dihydro-2H-pyrrolo[3,4-c]pyridin-2-yl}phenyl)cyclopropane-1-carbonitrile], for which the inhibition at 10 µM stood at 89%.

Regarding `CC1(Oc2ccc(N3Cc4c(ccnc4-c4ccccc4OCC(F)(F)F)C3=O)cn2)COC1` [Example 204, 2-{6-[(3-methyloxetan-3-yl)oxy]pyridin-3-yl}-4-[2-(2,2,2-trifluoroethoxy)phenyl]-2,3-dihydro-1H-pyrrolo[3,4-c]pyridin-1-one], the inhibition at 10 µM stood at 97%.

`O=C1c2ccnc(-c3ccc(F)cc3OCC(F)(F)F)c2CN1c1ccc(C2(O)CCOCC2)cn1` [Example 257, 4-[4-fluoro-2-(2,2,2-trifluoroethoxy)phenyl]-2-[5-(4-hydroxyoxan-4-yl)pyridin-2-yl]-2,3-dihydro-1H-pyrrolo[3,4-c]pyridin-1-one]: the inhibition at 10 µM worked out at 99%.

Regarding `O=C1c2ccnc(-c3ccc(F)cc3OCC3(F)CC3)c2CN1c1ccc(OC(F)F)cc1` [Example 128, 2-[4-(difluoromethoxy)phenyl]-4-{4-fluoro-2-[(1-fluorocyclopropyl)methoxy]phenyl}-2,3-dihydro-1H-pyrrolo[3,4-c]pyridin-1-one], the inhibition at 10 µM came to 99%.

With `Cc1cc2c(c(-c3ccccc3OCC(F)(F)F)n1)CN(c1ccc(OCC(C)(C)O)cc1)C2=O` [Example 364, 2-[4-(2-hydroxy-2-methylpropoxy)phenyl]-6-methyl-4-[2-(2,2,2-trifluoroethoxy)phenyl]-2,3-dihydro-1H-pyrrolo [3,4-c]pyridin-1-one], the inhibition at 10 µM worked out at 100%.

Consider `CC(=O)c1ccc(N2CC3=C(OC[C@H](C)N=C3c3ccccc3OCC(F)(F)F)C2=O)cc1` [Example 334, (3S)-7-(4-acetylphenyl)-3-methyl-5-[2-(2,2,2-trifluoroethoxy)phenyl]-2,3,6,7-tetrahydro-8H-pyrrolo [3,4-f][1,4]oxazepin-8-one], for which the inhibition at 10 µM is 88%.

Take `CC(C)(O)C(F)(F)c1ccc(N2Cc3c(ccnc3-c3ccc(F)cc3OCC(F)(F)F)C2=O)cn1` [Example 291, 2-[6-(1,1-difluoro-2-hydroxy-2-methylpropyl)pyridin-3-yl]-4-[4-fluoro-2-(2,2,2-trifluoroethoxy)phenyl]-2,3-dihydro-1H-pyrrolo[3,4-c]pyridin-1-one]: the inhibition at 10 µM was 79%.

`O=C1c2ccnc(-c3ccncc3OCC(F)(F)F)c2CN1c1ccc(F)cc1` [Example 77, 2-(4-fluorophenyl)-4-[3-(2,2,2-trifluoroethoxy)pyridin-4-yl]-2,3-dihydro-1H-pyrrolo[3,4-c]pyridin-1-one]: the inhibition at 10 µM worked out at 91%.

Regarding `Cc1cc2c(c(-c3c(F)cccc3OCC(F)(F)F)n1)CN(c1ccc(C(C)(C)O)cc1)C2=O` [Example 353, 4-[2-fluoro-6-(2,2,2-trifluoroethoxy)phenyl]-2-[4-(2-hydroxypropan-2-yl)phenyl]-6-methyl-2,3-dihydro-1H-pyrrolo[3,4-c]pyridin-1-one], the inhibition at 10 µM came to 100%.

Turning to `O=C1c2ccnc(-c3ccc(F)cc3OCC(F)(F)F)c2CN1c1ccc(C(O)C(F)F)cc1` (racemic) [Example 250, rac-2-[4-(2,2-difluoro-1-hydroxyethyl)phenyl]-4-[4-fluoro-2-(2,2,2-trifluoroethoxy)phenyl]-2,3-dihydro-1H-pyrrolo[3,4-c]pyridin-1-one], the inhibition at 10 µM was found to be 99%.

As to `O=C1c2ccnc(-c3ccncc3OCC(F)(F)F)c2CN1c1ccc(C2(O)CC(F)(F)C2)c(F)c1` [Example 287, 2-[4-(3,3-difluoro-1-hydroxycyclobutyl)-3-fluorophenyl]-4-[3-(2,2,2-trifluoroethoxy)pyridin-4-yl]-2,3-dihydro-1H-pyrrolo[3,4-c] pyridin-1-one], the inhibition at 10 µM is 99%.

On to `O=C1c2ccnc(-c3ccccc3OCC(F)(F)F)c2CN1c1ccc(C2(O)CC(O)C2)cc1` (stereo not drawn) [Example 228, (cis or trans)-2-[4-(1,3-dihydroxycyclobutyl)phenyl]-4-[2-(2,2,2-trifluoroethoxy)phenyl]-2,3-dihydro-1H-pyrrolo[3,4-c]pyridin-1-one], for which the inhibition at 10 µM is 86%.

As for `O=C1c2ccnc(-c3ccc(F)cc3OCC(F)(F)F)c2CN1c1ccc(C(O)C(F)F)cc1` (single isomer, unassigned) [Example 279, (R or S)-2-[4-(2,2-difluoro-1-hydroxyethyl)phenyl]-4-[4-fluoro-2-(2,2,2-trifluoroethoxy)phenyl]-2,3-dihydro-1H-pyrrolo[3,4-c]pyridin-1-one], the “GCS enzyme inhibitory rate at 10 μM (%) (% of control)” value was 99%.

`CC(C)(O)c1ccc(N2Cc3c(ccnc3-c3ccc(F)cc3OCC(F)(F)F)C2=O)nc1` [Example 234, 4-[4-fluoro-2-(2,2,2-trifluoroethoxy)phenyl]-2-[5-(2-hydroxypropan-2-yl)pyridin-2-yl]-2,3-dihydro-1H-pyrrolo[3,4-c]pyridin-1-one]: the inhibition at 10 µM was 99%.

Regarding `COc1cc(F)ccc1-c1nccc2c1CN(c1ccc(F)cc1)C2=O` [Example 7, 4-(4-fluoro-2-methoxyphenyl)-2-(4-fluorophenyl)-2,3-dihydro-1H-pyrrolo[3,4-c]pyridin-1-one], the inhibition at 10 µM stood at 70%.
